“Also recorded” adds a separate entry of the source. Peptide text beside a SMILES is read from it. * marks the point of attachment. Cbz = O=C(OCc1ccccc1)*; CH2F = FC*
How the values were obtained:
ARPE-19 cells = conditions: for protection against light-independent LF (A2E/ATRD) cytotoxicity, RPE survival: ARPE-19, inhibitor pretreatment, A2E/ATRD 24 h, no light; for protection against light-independent LF (A2E/ATRD) cytotoxicity, RPE survival / protection against lethal doses of A2E, viability: AlamarBlue; for cell death in ARPE19 cells exposed to the substance: light-independent; for protection against lethal doses of A2E, viability: ARPE19 pretreated 1 hr, then A2E 25 μM for 24 hrs in presence of drug
Experimental: Cell Viability Assay. […] 1× AlamarBlue solution prepared in OptiMEM was used to replace the media supernatant and the plate's fluorescence was determined at 555 nm excitation/585 nm emission with a SpectraMax M (Molecular Devices, CA, USA), after 1 h. […] The exact timing of appearance of far-red (DRAQ7=plasma membrane leakage) and blue (NUC405=caspase 3 activation) fluorescence signals was critical to differentiate apoptosis and necrosis from secondary events, such as membrane damage and generalized proteolytic activation during the late phase of apoptosis and necrosis, respectively.
Real time monitoring of necrotic and apoptotic cell-death. Cell-death assay to study Lipofuscin's dark toxicity was performed. 90% confluent ARPE-19 or hfRPE were incubated overnight in serum free media supplemented with indicated LB concentration. Viability was assessed at 24 hrs by AlamarBlue®, or microscopy with NUC405/DRAQ7. Real time monitoring of necrotic (red) and apoptotic (blue) cell-death was performed by automated fluorescence microscopy. The exact timing of appearance of far-red (DRAQ7=plasma membrane leakage) and blue (NUC405=caspase 3 activation) fluorescence signals was critical to differentiate apoptosis and necrosis from secondary events, such as membrane damage and generalized proteolytic activation during the late phase of apoptosis and necrosis, respectively.
Chemical inhibitors. Chemical inhibitors used in this study are described in FIG. 12.

human MLKL = test: Western blot of Ser358 phospho-MLKL, phosphorylation and polymerization of MLKL; assay type: cell-based; conditions: for induction of phosphorylation and polymerization of MLKL: absence of light; for effect on LF-induced phosphorylation and polymerization of MLKL: non-reducing conditions, cells with A2E/ATRD
Experimental: (§1) Immunoblotting. Total cell lysates were extracted using RIPA lysis buffer (50 mM TrisHCl, Ph 8.0, 150 mM NaCl, 1% NP40, 0.5% Sodium Deoxycholate, 0.1% SDS, protease-phosphatase inhibitor) after the incubation of the specific sample group in a 48 well plate. Sonication or syringing (20 times) was done followed by centrifugation at 12,000×g for 10 mins and the supernatant was collected and stored in −80° C. Proten concentration from homogenates were assessed by Pierce Rapid Gold BCA protein assay kit (ThermoFisher Scientific, cat.no. A53225). Then 30 μg of protein was analyzed by standard SDS-PAGE gel. Samples were mixed 4:1 (v:v) with Nupage loading buffer with or without 8% 0-mercaptoethanol and heated for 10 min at 72° C. SDS-PAGE was done using 4-12% Nupage gel and buffer (Life, NP0335BOX). Next, SDS-PAGE gel was transferred to nitrocellulose membrane (Whatman, PROTAN BA83) overnight at 20V. The following day, 5% milk in TBS was used for 2 h blocking the membrane and then primary antibody was added in TBST (TBS, 0.1% Tween-20) for overnight at 4° C. Next day membranes were washed and incubated for 2 hours at room temperature with HRP conjugated secondary antibody (cat #G21234, Invitrogen) at 1:10,000 dilution. After 3 more washed membranes were probed with enhanced chemiluminescence (ECL) reagent and detected using an X-ray films for chemiluminescence image (GE healthcare, RPN2106). Scanning/imaging and quantitation of the image was done using silverfast 8 application software and Fiji Image J. Antibodies for Western blotting were list in FIG. 10.
For its phosphorylation, MLKL and its kinase need to be recruited into multiprotein complexes, known as necrosomes (FIG. 4O). Necrosomes are not well conserved among species and vary also with the nature of the stimuli that triggers their formation. […] Considering that phosphorylation of human MLKL at Ser358 (pMLKL), is a hallmark triggering event and marker of necroptosis, the Ser358-phosphorylation and polymerization status of MLKL in cells with LF was determined. […] A prerequisite for the assembly of these RIP kinases into necrosomes was their phosphorylation.

CHOP = test: Western blot of CHOP upregulation (UPR, downstream of PERK); assay type: cell-based, Human; conditions: cells incubated with A2E
Experimental: as §1

cathepsin D = assay type: cell-based
Description: (§2) Next, A2E buildups were imaged using a combination of DIC and fluorescence: A2E appeared as granules with well-defined edges, both within cells or after drying over a coverslip (FIGS. 14D and 14E). Next, the ability of the suspected A2E crystals to damage lysosomal membranes was investigated. A recently developed galectin-3 puncta assay for early detection of lysosomal membrane permeabilization (LMP) was used. Briefly, cytosolic galectin-3 rapidly binds to the glycocalyx in the luminal face of lysosomal membranes as they become leaky, which is easily detectable with anti-galectin high-affinity antibodies. L-Leucyl-L-Leucine methyl ester (LLO) a lysosomotropic peptide that causes LMP was used as positive control of puncta formation (FIG. 14E). […] LMP was confirmed by showing the […] of cathepsin D, as surrogate of lysosomal enzymes. […] Also, very remarkable was the observation that the same unique pattern of protection with arimoclomol and Nec-7 but not Nec-1 was observable for LLO (FIG. 14K), consistent with the idea that necroptosis by A2E is being caused by LMP.

lysosomal membranes = assay type: cell-based
Description: as §2

ARPE19 cells = test: ATR-induced light-independent cell death; assay type: cell-based, Human; conditions: pre-treatment with 33 μM
Description: Overall, these indicate that necroptosis is a specific readout of ocular lipofuscin toxicity, easily distinguishable from the poisonous effects of ATR.

[1] = tested on: UPR (PERK and ATF6 branches); test: Western blot of ER-stress markers (p-eIF2a, ATF4, BiP, ATF6) without illumination; assay type: cell-based, Human
Experimental: as §1
The causal link between LF accumulation and ER-stress without light assistance was analyzed (FIG. 6A). […] The activation of the IRE1α branch was visualized by qPCR.

IRE1α = test: qPCR of spliced XBP1 (XBP1s) as readout of IRE1α activity in ARPE-19; assay type: cell-based, Human; conditions: in the dark, qPCR
Description: RNA isolation and quantitative PCR. Total RNA was extracted from cultured cells or mouse eye RPE layer using the RNeasy Mini kit (QIAGEN). The total RNA was digested with deoxyribonuclease I to prevent amplification of genomic DNA. The total RNA then was reversed transcribed using High-Capacity cDNA Reverse Transcription Kit (ThermoFisher Scientific, cat.no. 4368814) and analyzed gene expression using SYBR Green Master Mix (ThermoFisher Scientific, cat.no. 4472908) in an Applied Biosystems StepOne real time PCR machine. GAPDH was used as a reference gene. […] After genes were amplified by real time PCR, some of the PCR products were separated by 2.5% agarose gel.

Cc1cc(=O)oc2c(C=O)c(O)ccc12 [4μ8C]
protection against light-independent LF (A2E/ATRD) cytotoxicity, RPE survival (ARPE-19 cells): did not translate into survival

c1cc(Nc2cc(C3CC3)[nH]n2)nc(Nc2ccc3nc[nH]c3c2)n1 [APY29]
protection against light-independent LF (A2E/ATRD) cytotoxicity, RPE survival (ARPE-19 cells): did not translate into survival

CC1=C(/C=C/C(C)=C/C=C/C(C)=C/C=O)C(C)(C)CCC1 [ATR, all-trans-retinal]
induction of phosphorylation and polymerization of MLKL (human MLKL): no increase in phosphorylation/polymerization of MLKL
cell death in ARPE19 cells exposed to the substance (ARPE-19 cells): Dose dependent cell death

COc1ccc(O)c(C(C)(C)C)c1 [BHA]
protection against light-independent LF (A2E/ATRD) cytotoxicity, RPE survival (ARPE-19 cells): did not rescue

COc1cc(OC)c(/C=C/S(=O)(=O)Cc2ccc(OC)c(OP(=O)(O)O)c2)c(OC)c1 [Briciclib]
protection against lethal doses of A2E, viability (ARPE-19 cells): did not confer significant protection

CC(C)S(=O)(=O)c1ccc2nccc(Nc3ccc4scnc4c3)c2c1 [GSK'872]
effect on LF-induced phosphorylation and polymerization of MLKL (human MLKL): did not; also recorded: not affected
effect on LF-induced upregulation of CHOP / UPR (CHOP): neither Nec1 nor GSK'872 effected the UPR
protection against light-independent LF (A2E/ATRD) cytotoxicity, RPE survival (ARPE-19 cells): did not protect; also recorded: not affected

N=C(N)N/N=C/c1c(Cl)cccc1Cl [Guanabenz]
protection against lethal doses of A2E, viability (ARPE-19 cells): did not confer significant protection

CC(C)c1nc(-c2ccc(NC(=O)Nc3cccc(C(F)(F)F)c3)c3ccccc23)c2c(N)nccn12 [KIRA3]
protection against light-independent LF (A2E/ATRD) cytotoxicity, RPE survival (ARPE-19 cells): sufficient to protect against necroptosis by LF

COC(=O)[C@H](CC(C)C)NC(=O)[C@@H](N)CC(C)C [LLO, L-Leucyl-L-Leucine methyl ester]
cathepsin-D activity (cathepsin D): caused reduction in cathepsin-D activity
lysosomal membrane permeabilization (galectin-3 puncta) (lysosomal membranes): induced Lysosome membrane permeabilization (LMP)

CN1CCN(C(=O)c2ccc(-c3ccc4c(C=O)c(O)ccc4c3)s2)CC1 [MKC-3946]
protection against light-independent LF (A2E/ATRD) cytotoxicity, RPE survival (ARPE-19 cells): did not translate into survival

CN1C(=O)C(Cc2c[nH]c3ccccc23)NC1=S (stereo not shown) [Nec1, Necrostatin-1]
effect on LF-induced phosphorylation and polymerization of MLKL (human MLKL): did not block phosphorylation and polymerization of MLKL; also recorded: not affected
effect on LF-induced upregulation of CHOP / UPR (CHOP): neither Nec1 nor GSK'872 effected the UPR
effect on cell death by ATR (ARPE19 cells): did not block cell death
protection against light-independent LF (A2E/ATRD) cytotoxicity, RPE survival (ARPE-19 cells): not affected

CN1C(=O)NC(Cc2c[nH]c3c(Cl)cccc23)C1=O (stereo not shown) [Nec1s]
effect on LF-induced phosphorylation and polymerization of MLKL (human MLKL): not affected
effect on cell death by ATR (ARPE19 cells): did not block cell death
protection against light-independent LF (A2E/ATRD) cytotoxicity, RPE survival (ARPE-19 cells): not affected

Cc1cc(O)c(C(=O)/C=C/c2ccc(O)c([N+](=O)[O-])c2)c(=O)o1 [Nec2]
effect on LF-induced phosphorylation and polymerization of MLKL (human MLKL): not affected
protection against light-independent LF (A2E/ATRD) cytotoxicity, RPE survival (ARPE-19 cells): not affected

COc1ccc(-n2c(SCC#N)nc3sc4c(c3c2=O)CCCC4)cc1 [Nec5]
effect on LF-induced phosphorylation and polymerization of MLKL (human MLKL): not affected
protection against light-independent LF (A2E/ATRD) cytotoxicity, RPE survival (ARPE-19 cells): not affected

O=C(/C=C/c1ccccc1)NC(NC(=S)Nc1ccc(Cl)cc1)C(Cl)(Cl)Cl (stereo not shown) [SAL003]
protection against lethal doses of A2E, viability (ARPE-19 cells): protected against lipofuscin

O=S(=O)(N=Cc1c(O)ccc2ccccc12)c1cccs1 [STF-0831]
protection against light-independent LF (A2E/ATRD) cytotoxicity, RPE survival (ARPE-19 cells): did not translate into survival

CCC(=O)N1CCN(c2ccc(-n3c(=O)ccc4cnc5ccc(-c6cnc7ccccc7c6)cc5c43)cc2C(F)(F)F)CC1 [Torin-1]
protection against lethal doses of A2E, viability (ARPE-19 cells): did not confer significant protection

[O-][n+]1cccc(/C(Cl)=N/OC[C@H](O)CN2CCCCC2)c1 [arimoclomol]
effect on loss of cathepsin-D activity caused by A2E (cathepsin D): prevented
protection against light-independent LF (A2E/ATRD) cytotoxicity, RPE survival (ARPE-19 cells): protects against necroptosis by lipofuscin

CC(C)(C)c1nc(-c2cccc(NS(=O)(=O)c3c(F)cccc3F)c2F)c(-c2ccnc(N)n2)s1 [dabrafenib]
protection against light-independent LF (A2E/ATRD) cytotoxicity, RPE survival (ARPE-19 cells): increased RPE survival in a dose dependent manner

Cc1cc(Nc2cc(N)ncn2)c(=O)n2c1C(=O)NC21CCCCC1 [eFT508]
protection against lethal doses of A2E, viability (ARPE-19 cells): did not confer significant protection

COc1nccnc1NS(=O)(=O)c1ccc(NC(=O)/C=C/c2ccc([N+](=O)[O-])s2)cc1 [necrosulfonamide]
protection against light-independent LF (A2E/ATRD) cytotoxicity, RPE survival (ARPE-19 cells): increased RPE survival in a dose dependent manner

COC(=O)C[C@H](NC(=O)[C@H](C)NC(=O)[C@@H](NC(=O)OCc1ccccc1)C(C)C)C(=O)CF [z-VAD(OMe)-FMK] (Cbz-Val-Ala-Asp(OMe)-CH2F)
protection against light-independent LF (A2E/ATRD) cytotoxicity, RPE survival (ARPE-19 cells): provided no protection

all-trans-retinal dimers [ATRD]
induction of phosphorylation and polymerization of MLKL (human MLKL): dose-dependent phosphorylation and polymerization of MLKL
induction of ATF4 and BiP ([1]; without light): highest induction of ATF4 and BiP
cell death in ARPE19 cells exposed to the substance (ARPE-19 cells): Dose dependent cell death
induction of XBP1s (IRE1α): dose and time-dependent inductions of XBP1s

methyl beta-cyclodextrins [MβCD]
protection against A2E cytotoxicity by neutralization of detergent activity (ARPE-19 cells; 10 μM methyl-βCD, 20 μM A2E): did not protect against A2E

tunicamycin
cleavage of ATF6 ([1]; 6 hrs treatment, 20 μM A2E): significant cleavage

Source: patent publication US20240082221A1, “COMPOSITIONS AND METHODS FOR THE IDENTIFICATION OF COMPOUNDS THAT PROTECT AGAINST LIPOFUSCIN CYTOTOXICITY” (priority 2021, published 2024)
